Measurements: US10869931B2, “Polyethylene glycol-modified angiogenesis inhibitor HM-1 and application thereof” (NANJING ANJI BIOLOGICAL TECHNOLOGY CO.,LTD, priority 2016, dated 2020)
Marks after values point to notes of the source that are not given here. Where no end group is shown, it is not given here.

How the values were obtained:
[1] = system: Liver cancer tumor cells; assay: MTT proliferation inhibition, liver cancer cells; assay type: cell-based, human; design: concentration or dose not given beside the values; settings: 48 h
Method: (§1) The activity of mPEG-HM-1 to inhibit the growth of various tumor cells was examined by MTT assay. The tumor cells were cultured to a concentration of 90% or more in a 37° C., 5% CO2 incubator and collected by trypsinization. The cells were resuspended in the culture medium and counted under a microscope to adjust the cell concentration to 2×10^4 cells/mL, the cell suspension was inoculated into a 96-well plate at 100 μL/well and incubated overnight at 37° C. in a 5% CO2 incubator. mPEG-HM-1 was diluted with the culture solution to each predetermined concentration. Docetaxel is diluted to the final concentration with the culture medium. After the cells were fully attached, each dilution was added to a 96-well plate (100 μL/well). The mPEG-HM-1 dilution was added as a drug-administered group, and docetaxel was added as a positive control group, and a culture solution without any drug was used as a negative control group. Incubate for 48 h at 37° C. in a 5% CO2 incubator. 5 mg/mL of MTT was added to a 96-well plate at 20 μL per well, and incubation was continued for 4 hours. The medium was aspirated, dissolved in 150 μL of DMSO per well, and gently mixed by shaking for 10 min. The absorbance was measured at a measurement wavelength of 570 nm and a reference wavelength of 630 nm using a microplate reader, and the rate of growth inhibition (proliferation inhibition, PI) was calculated. The formula is as follows: PI (%)=1−administration group/negative group
(§2) The test was repeated 3 times independently, and the results obtained by the test were expressed as mean±SD, and the test results are shown in Table 15 to Table 18.

[2] = system: Human Umbilical Vein Endothelial Cells (HUVEC); assay: Transwell migration of HUVEC; assay type: cell-based; settings: 24 h
Method: 10 mg/mL Matrigel was diluted 1:2 with HUVEC-specific medium, spread on a transwell chamber membrane, and air-dried at room temperature. HUVEC cells cultured in logarithmic growth phase were digested with trypsin digest, collected, washed twice with PBS, and resuspended in blank HUVECs-specific medium. The cells were counted under a microscope, and the cell concentration was adjusted to 1×10^5/mL. The test solutions of each group were prepared and diluted to 100 μL with a blank HUVECs-specific medium. The cells were seeded into a transwell chamber at 100 μL per well, and each set of test solution was added to the chamber. The cell culture was stimulated by adding 0.6 mL of endothelial cell culture medium containing 5% fetal bovine serum and 1% ECGS into a 24-well plate, and cultured at 5% CO2 for 24 hour at 37° c. Discard the culture medium in the well, fix it with 90% alcohol at room temperature for 30 minutes, 0.1% crystal violet for 10 min at room temperature, rinse with water, gently wipe off the unsprayed cells in the upper layer with a cotton swab, observe under microscope and select four fields to take pictures. Calculate migration inhibition (MI) according to the formula: […]
Ntest was the number of cell migration in the test group, and Ncontrol was the number of cell migration in the blank control group.
The test was repeated 3 times independently. The results obtained from the test were calculated as mean±SD, and a statistical T test was performed. *P<0.05 was a significant difference, and **P<0.01 was a very significant difference.

[3] = system: Kidney cancer tumor cells; assay: MTT proliferation inhibition, kidney cancer cells; assay type: cell-based, human; design: concentration or dose not given beside the values; settings: 48 h
Method: as §1, §2

[4] = in vivo
[5] = system: neovascularization in rat model of premature retinopathy; assay: Fluctuating-oxygen rat model of premature retinopathy (endothelial nuclei count); assay type: in vivo; settings: for Cell nuclei count: day 14
Method: A fluctuating oxygen-induced animal model was used to randomly divide the newborn rats that were naturally delivered on the same day (within 12 hours) into three groups: the oxygenated model group, the oxygenated treatment group, and the normal control group. The oxygenated model group was subdivided into three subgroup models and along with the oxygenated treatment group was placed in a semi-closed oxygen chamber made of plexiglass. The chamber was connected to medical oxygen, and the oxygen analyzer was adjusted to a concentration of 80%±2%. After 24 hours, Nitrogen gas was introduced into the oxygen chamber, and the oxygen concentration was adjusted to 10%±2% and maintained for 24 h. This process was repeated, so that the oxygen concentration in the oxygen chamber is switched between 80% and 10% every 24 hours, and then transferred to the air for 7 days. The oxygen concentration was monitored 8 times a day, and the ambient temperature in the control cabin was 23° C.±2° C. Bedding change, adding food, changing water and replacing mother rats were performed once a day. The normal control group was placed in an animal facility environment. […] The oxygenated therapeutic components were divided into four subgroups, and on the 7th day of modeling, mPEG-SC-HM-1, mPEG2-NHS-HM-1, mPEG-ALD10k-HM-1, and mPEG-bALD-HM-1 were respectively administered by intravitreal injection. Only normal saline was administered to the oxygen model group and the control group. The administrations continued for 1 week. […] After immersion in wax, serial section at thickness of 4 μm was performed, wherein the sections were kept away from the optic disc. The sections are parallel to the sagittal plane of the cornea to the optic disc. Ten sections per eyeball were randomly selected from each eyeball to be stained with hematoxylin and eosin, and the number of vascular endothelial cells that broke through the retinal inner membrane was counted (only the vascular endothelial nucleus closely related to the inner retinal membrane was counted), and the average numbers of endothelial cells per eyeball per slice was counted.

[6] = system: Prostate cancer tumor cells; assay: MTT proliferation inhibition, prostate cancer cells; assay type: cell-based, human; design: concentration or dose not given beside the values; settings: 48 h
Method: as §1, §2

[7] = system: Gastric cancer tumor cells; assay: MTT proliferation inhibition, gastric cancer cells; assay type: cell-based, human; design: concentration or dose not given beside the values; settings: 48 h
Method: as §1, §2

[8] = system: Breast cancer tumor cells; assay: MTT proliferation inhibition, breast cancer cells; assay type: cell-based, human; design: concentration or dose not given beside the values; settings: 48 h
Method: as §1, §2

[9] = 100 μg intravitreal for 1 week from day 7, vascular endothelial nuclei per slice
[10] = 200 μg intravitreal for 1 week from day 7, vascular endothelial nuclei per slice

Substance | rate of growth inhibition [1] [%] | cell migration number (Mean ± SD) ([2]; 70 μg/mL) | inhibition rate of HUVEC migration ([2]; 70 μg/mL) | cell migration number (Mean ± SD) ([2]; 80 μg/mL) | inhibition rate of HUVEC migration ([2]; 80 μg/mL) | cell migration number (Mean ± SD) ([2]; 90 μg/mL) | inhibition rate of HUVEC migration ([2]; 90 μg/mL) | cell migration number (Mean ± SD) ([2]; 100 μg/mL) | inhibition rate of HUVEC migration ([2]; 100 μg/mL) | rate of growth inhibition [3] [%] | AUC0-∞ [4] [mg/L/h] | CL [4] [L/h/kg] | MRT0-∞ [4] [h] | T1/2β (half-life) [4] [h] | Cell nuclei count [5, 9] | rate of growth inhibition [6] [%] | rate of growth inhibition [7] [%] | rate of growth inhibition [8] [%] | cell migration number (Mean ± SD) ([2]; 110 μg/mL) | inhibition rate of HUVEC migration ([2]; 110 μg/mL) [%] | further results
mPEG-ALD20k-Arg-Gly-Ala-Asp-Arg-Ala-Gly-Gly-Gly-Gly-Arg-Gly-Asp ({mPEG‑ALD 20 kDa}-RGADRAGGGGRGD) [mPEG-ALD20k-HM-1] | 65.31 ± 18.18 | 611.92 ± 52.08 | 40.53%* | 507.07 ± 40.74 | 50.72% | 403.15 ± 48.80 | 60.82% | 564.59 ± 50.42 | 45.13%* | 70.23 ± 20.58 | 5899.46 ± 6.68 | 0.0129 ± 0.0106 | 18.65 ± 2.57 | 22.65 ± 0.21 | 7.036 ± 1.315 | 43.99 ± 12.77 | 75.23 ± 20.62 | 65.17 ± 18.20 | – | – | vascular endothelial cell nuclei count ([5]; neonatal rats, 100 μg intravitreal, 1 week): 7.036±1.315
mPEG-ALD40k-Arg-Gly-Ala-Asp-Arg-Ala-Gly-Gly-Gly-Gly-Arg-Gly-Asp ({mPEG‑ALD 40 kDa}-RGADRAGGGGRGD) [mPEG-ALD40k-HM-1] | 60.78 ± 10.88 | – | – | – | – | 534.34 ± 56.62 | 48.07%* | 510.47 ± 60.56 | 50.39% | 68.46 ± 20.98 | 5276.69 ± 9.84 | 0.0065 ± 0.0058 | 16.52 ± 3.06 | 43.31 ± 0.22 | – | 42.91 ± 11.65 | 70.66 ± 18.72 | 60.17 ± 19.24 | 471.88 ± 46.27 | 54.14 | cell migration number (Mean ± SD) ([2]; 120 μg/mL): 565.31 ± 50.34; inhibition rate of HUVEC migration ([2]; 120 μg/mL): 45.06%*; Cell nuclei count [5, 10]: 8.673 ± 2.756
mPEG-SC5k-Arg-Gly-Ala-Asp-Arg-Ala-Gly-Gly-Gly-Gly-Arg-Gly-Asp ({mPEG‑SC 5 kDa}-RGADRAGGGGRGD) [mPEG-SC5k-HM-1] | 51.34 ± 11.25 | – | – | – | – | – | – | – | – | 51.07 ± 12.45 | 4391.72 ± 12.85 | 0.0598 ± 0.0108 | 7.68 ± 2.97 | 8.31 ± 0.12 | – | 38.37 ± 15.61 | 52.12 ± 13.22 | 48.13 ± 12.17 | – | – | cell migration number (Mean ± SD) ([2]; 30 μg/mL): 617.03 ± 60.97; inhibition rate of HUVEC migration ([2]; 30 μg/mL): 41.83%*; cell migration number (Mean ± SD) ([2]; 40 μg/mL): 517.43 ± 50.39; inhibition rate of HUVEC migration ([2]; 40 μg/mL): 51.22%; cell migration number (Mean ± SD) ([2]; 50 μg/mL): 469.59 ± 48.95; inhibition rate of HUVEC migration ([2]; 50 μg/mL): 55.73%; cell migration number (Mean ± SD) ([2]; 60 μg/mL): 601.65 ± 60.73; inhibition rate of HUVEC migration ([2]; 60 μg/mL): 43.28%*; Cell nuclei count ([5]; 25 μg intravitreal for 1 week from day 7, vascular endothelial nuclei breaking through inner retinal membrane per slice): 9.104 ± 3.087
mPEG-SC10k-Arg-Gly-Ala-Asp-Arg-Ala-Gly-Gly-Gly-Gly-Arg-Gly-Asp ({mPEG‑SC 10 kDa}-RGADRAGGGGRGD) [mPEG-SC10k-HM-1] | 57.18 ± 12.35 | 439.89 ± 48.08 | 58.53% | 580.33 ± 58.20 | 45.29%* | – | – | – | – | 60.07 ± 14.24 | 4671.86 ± 10.76 | 0.0273 ± 0.0056 | 12.67 ± 5.84 | 15.18 ± 0.11 | – | 45.39 ± 12.63 | 56.22 ± 16.19 | 50.16 ± 13.27 | – | – | cell migration number (Mean ± SD) ([2]; 50 μg/mL): 612.15 ± 50.34; inhibition rate of HUVEC migration ([2]; 50 μg/mL): 42.49%*; cell migration number (Mean ± SD) ([2]; 60 μg/mL): 527.08 ± 48.30; inhibition rate of HUVEC migration ([2]; 60 μg/mL): 50.31%; Cell nuclei count ([5]; 50 μg intravitreal for 1 week from day 7, vascular endothelial nuclei per slice): 8.528 ± 3.109
mPEG-SC20k-Arg-Gly-Ala-Asp-Arg-Ala-Gly-Gly-Gly-Gly-Arg-Gly-Asp ({mPEG‑SC 20 kDa}-RGADRAGGGGRGD) [mPEG-SC20k-HM-1] | 61.09 ± 14.09 | 596.77 ± 50.58 | 43.74%* | 499.29 ± 50.26 | 52.93% | 415.07 ± 46.74 | 60.87% | 559.75 ± 52.94 | 47.23%* | 67.29 ± 18.16 | 4310.23 ± 12.98 | 0.0135 ± 0.0093 | 17.64 ± 12.67 | 21.46 ± 0.24 | 7.372 ± 2.078 | 49.35 ± 10.04 | 66.14 ± 20.08 | 52.18 ± 18.28 | – | – | –
mPEG-SC40k-Arg-Gly-Ala-Asp-Arg-Ala-Gly-Gly-Gly-Gly-Arg-Gly-Asp ({mPEG‑SC 40 kDa}-RGADRAGGGGRGD) [mPEG-SC40k-HM-1] | 60.37 ± 14.74 | – | – | – | – | 632.63 ± 58.69 | 40.36%* | 501.84 ± 62.84 | 52.69% | 62.23 ± 16.51 | 4365.64 ± 11.06 | 0.0068 ± 0.0047 | 16.36 ± 10.28 | 42.19 ± 0.32 | – | 45.93 ± 12.72 | 55.13 ± 10.32 | 50.12 ± 18.09 | 464.50 ± 48.47 | 56.21 | cell migration number (Mean ± SD) ([2]; 120 μg/mL): 542.89 ± 49.29; inhibition rate of HUVEC migration ([2]; 120 μg/mL): 48.82%*; Cell nuclei count [5, 10]: 8.089 ± 2.935
